# Target: T1, Corticotropin-releasing factor receptor 1 (Homo sapiens, UniProt P34998)
# T1 sequence (P34998 whole entry): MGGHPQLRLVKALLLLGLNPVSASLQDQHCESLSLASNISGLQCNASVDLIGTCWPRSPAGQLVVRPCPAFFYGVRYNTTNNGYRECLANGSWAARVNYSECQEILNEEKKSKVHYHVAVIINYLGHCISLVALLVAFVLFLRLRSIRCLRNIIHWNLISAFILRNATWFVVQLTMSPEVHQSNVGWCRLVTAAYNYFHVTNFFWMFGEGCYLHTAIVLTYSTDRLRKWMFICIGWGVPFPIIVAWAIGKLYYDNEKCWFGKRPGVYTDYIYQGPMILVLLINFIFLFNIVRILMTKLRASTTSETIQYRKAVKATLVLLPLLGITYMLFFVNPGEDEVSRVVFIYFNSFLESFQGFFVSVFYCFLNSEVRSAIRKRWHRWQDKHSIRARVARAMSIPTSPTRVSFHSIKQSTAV
# Assay: Binding affinity for transfected human Corticotropin releasing factor receptor expressed in HEK 293E cells using [125I]TYR-oCRH as the displaced radioligand
# Type: cell-based, HEK293
row,SMILES,Ki [µM]
1,CCCCN(CC)c1nc(C)nc2c1n(C)c(=O)n2-c1c(C)cc(C)nc1C,0.124
2,CCCCN(CC)c1cc(C)nc2c1n(C)c(=O)n2-c1ccc(C(C)C)cc1Br,0.003
3,CCCCN(CC)c1nc(C)nc2c1nc(N1CCOCC1)n2-c1ccc(C(C)C)cc1Br,0.345
4,CCCCN(CC)c1nc(C)nc2c1n(CC1CC1)c(=O)n2-c1ccc(C(C)C)cc1Br,0.117
5,CCCN(CCC)c1nc(C)nc2c1n(C)c(=O)n2-c1ccc(C(C)C)cc1Br,0.0076
6,COCCN(Cc1ccccc1)c1nc(C)nc2c1n(C)c(=O)n2-c1ccc(C(C)C)cc1Br,0.0262
7,CCCCN(CC)c1nc(C)nc2c1nc(OC)n2-c1ccc(C(C)C)cc1Br,0.0015
8,CCCN(CC1CC1)c1nc(C)nc2c1n(C)c(=O)n2-c1c(C)cc(C)nc1C,0.113
9,CCN(CCOC)c1nc(C)nc2c1n(C)c(=O)n2-c1ccc(C(C)C)cc1Br,0.0479
10,CCCCN(CC)c1nc(C)nc2c1nc(Cl)n2-c1ccc(C(C)C)cc1Br,0.0015
11,CCCN(CC1CC1)c1nc(C)nc2c1n(C)c(=O)n2-c1c(C)cc(C)cc1C,0.0061
12,COCCN(CC1CC1)c1nc(C)nc2c1n(C)c(=O)n2-c1ccc(C(C)C)cc1Br,0.0122
13,CCCCN(CC)c1nc(C)nc2c1nc(OCC1CC1)n2-c1ccc(C(C)C)cc1Br,0.0311
14,CCCCC(CC)Nc1nc(C)nc2c1n(C)c(=O)n2-c1c(C)cc(C)cc1C (configuration not stated),0.0174
15,COCCN(CCOC)c1nc(C)nc2c1n(C)c(=O)n2-c1ccc(C(C)C)cc1Br,0.13
16,CCCN(CCC)c1nc(C)nc2c1n(C)c(=O)n2-c1c(C)cc(C)nc1C,0.259
17,CCC(COC)Nc1nc(C)nc2c1n(C)c(=O)n2-c1ccc(C(C)C)cc1Br (configuration not stated),0.0428
18,COCCN(CCOC)c1nc(C)nc2c1n(C)c(=O)n2-c1c(C)cc(C)cc1C,0.698
19,CCCCN(CC)c1nc(C)nc2c1nc(O)n2-c1ccc(C(C)C)cc1Br,0.89
20,CCCCN(CC)c1nc(C)cc2c1n(C)c(=O)n2-c1ccc(C(C)C)cc1Br,0.463
21,CCCN(CC1CC1)c1nc(C)nc2c1n(C)c(=O)n2-c1ccc(C(C)C)cc1Br,0.0057
22,CCCCC(CC)Nc1nc(C)nc2c1n(C)c(=O)n2-c1ccc(C(C)C)cc1Br (configuration not stated),0.0151

# Reference: ChEMBL document CHEMBL1131668, “Purin-8-ones as corticotropin-releasing hormone (CRH-R1) receptor antagonists” (Bioorg Med Chem Lett, 1999)
